Source: publication PMC7534330, “UHPLC-MS/MS method for pharmacokinetic and bioavailability determination of five bioactive components in raw and various processed products of Polygala tenuifolia in rat plasma” (Pharmaceutical Biology, 2020)
Like-named read-outs stand apart in the source and are kept apart here.

Experiment: Pharmacokinetics and absolute bioavailability of five compounds after oral and i.v. administration (UHPLC-MS/MS)
Type: in vivo
Conditions: rat; for MRT last: read-out: MRT0-t; for half-life: read-out: t1/2 (converted); for AUCΔ0-t (dose-normalized) / AUCΔ0-∞ (dose-normalized) / CΔmax (dose-normalized): dose-normalized value
Experimental: A Thermo Hypersil Gold C18 column (3.0 × 100 mm, i.d.; 3 μm) was used for chromatographic separation. An aqueous 10 mM ammonium acetate solution (A) and acetonitrile (B) were selected as the mobile phase components. The optimal gradient program involved the following steps: 5% B (0–1 min), changing to 85% B (1–3.5 min), 85% B (3.5–4.0 min), changing to 5% B (4.0–4.1 min) and 5% B (4.1–5.0 min). The flow rate was set to 0.4 mL/min, the autosampler was maintained at 4 °C and the injection volume was 5 μL.
UHPLC-MS/MS was conducted by an Applied Biosystems (AB) Sciex Exion LC system (Foster City, CA) connected to a 6500 + triple quad tandem mass spectrometer with an electrospray ionization source. All detection and quantifications were carried out in positive multiple reaction monitoring (MRM) mode. The optimized parameters were programmed as follows: ion source temperature, 500 °C; curtain gas pressure, 30 kPa; ion source gas 1 pressure, 55 kPa; ion source gas 2 pressure, 55 kPa; and ion spray voltage, […]. The chemical structures and ion mass spectra of targeted compounds are shown in Figure 1. The precursor ion and product ion were m/z 517.1 → 174.9 for A5, m/z 547.0 → 204.9 for A6, m/z 753.2 → 205.2 for DSS, m/z 681.3 → 443.3 for TFSA, m/z 236.8 → 103.2 for TMCA and m/z 136.9 → 92.9 for IS. All data were acquired by using AB Sciex Analyst software (version 1.6.3).
After thawing the frozen blood samples at room temperature, a 100 μL aliquot of plasma was spiked with 50 μL of the IS working solution in 2 mL EP tubes, and 750 μL of methanol was added into each of the tubes. Then, these tubes were mixed on a multi-tube Vortexer for 0.5 min before centrifugation at 11,800×g for 10 min. Finally, 200 μL of the obtained supernatant was transferred to a fresh autosampler vial, and then 5 μL of the sample was injected for analysis.
The SD rats were randomly divided into oral and i.v. groups for A5, A6, DSS, TFSA and TMCA administration (n = 6 in each group). The oral doses of A5, A6, DSS, TFSA and TMCA groups were 7.40, 11.60, 16.00, 50.00 and 3.11 mg/kg, respectively, and the corresponding i.v. doses were 0.74, 1.16, 1.60, 5.00 and 0.31 mg/kg, respectively. Blood samples were collected from the suborbital vein into heparinized tubes before and 0, 0.083, 0.17, 0.25, 0.5, 1, 2, 3, 5 and 8 h after administration. The treatment method of blood samples was the same as that mentioned above.
The elementary pharmacokinetic parameters of plasma samples were analyzed by DAS 2.0 pharmacokinetic software. One-way analysis of variance (ANOVA) was used for statistical comparison for pharmacokinetic and interaction studies. A p-value < 0.05 indicated a significant difference. The main parameters considered were as follows: AUC0–∞ (the area under the blood concentration-time curve from zero to infinity initial plasma concentration), MRT (the mean residence time), Cmax (peak plasma concentration) and Tmax (time to reach Cmax for oral dose), t1/2 (elimination half-life) (He et al. [2015]). The absolute bioavailability (F) was evaluated as follows: F(%)=(AUCoral×Dosei.v.)/(AUCi.v.×Doseoral)×100%

[1] = SD, in vivo, iv, i.v. administration, A5 0.74, A6 1.16, DSS 1.60, TFSA 5.00, TMCA 0.31 mg/kg, n = 6
[2] = SD, in vivo, oral administration of pure compound, A5 7.40, A6 11.60, DSS 16.00, TFSA 50.00, TMCA 3.11 mg/kg, n = 6

COc1cc(C=CC(=O)O)cc(OC)c1OC [TMCA, 3,4,5-trimethoxycinnamic acid]
AUC(0-inf) [1]: 226 ± 61.2 ng·h/mL | AUC(0-t) [1]: 225 ± 60.9 ng·h/mL | Cmax [1]: 1470 ± 238 ng/mL | MRT last [1]: 15 ± 3.6 min | half-life [1]: 37.2 ± 7.8 min | AUC(0-inf) [2]: 971 ± 59.8 ng·h/mL | AUC(0-t) [2]: 968 ± 58.4 ng·h/mL | Cmax [2]: 1110 ± 90.5 ng/mL | MRT last [2]: 40.8 ± 1.8 min | Tmax (SD, in vivo, oral administration of pure compound, A5 7.40, A6 11.60, DSS 16.00, TFSA 50.00, TMCA 3.11 mg/kg, n = 6, read-out: Tmax): 15 min | half-life [2]: 39 ± 1.2 min | AUCΔ0-t (dose-normalized) (i.v. administration): 725.52 ± 196.42 ng·h/mL | AUCΔ0-∞ (dose-normalized) (i.v. administration): 730.65 ± 197.45 ng·h/mL | CΔmax (dose-normalized) (i.v. administration): 4750.32 ± 768.32 ng/mL | AUCΔ0-t (dose-normalized) (oral administration): 311.40 ± 18.78 ng·h/mL | AUCΔ0-∞ (dose-normalized) (oral administration): 312.32 ± 19.23 ng·h/mL | CΔmax (dose-normalized) (oral administration): 356.33 ± 29.10 ng/mL | F, absolute bioavailability (oral vs i.v. (i.v. dose 1/10 of oral dose)): 42.91 % of dose
